Reference: patent US20220370468A1, “Methods of treating sleep disorders associated with pain” (Astellas Pharma Global Development, Inc., priority 2019, published 2022)

Test system: patients with fibromyalgia
Experiment: Phase 2a study: Fibromyalgia Impact Questionnaire Revised (FIQR)
Format: in vivo, human
Conditions: for FIQR total score improvement from baseline, LS mean difference versus placebo: ANCOVA
Method: A phase 2a, randomized, double-blind, placebo-controlled, parallel group study was conducted at 24 sites in the United States to assess the analgesic efficacy and safety of the compound of Formula (I) in patients with fibromyalgia. The study consisted of the following: a screening period of up to 42 days, which included a washout period and a 7-day baseline diary run-in; a 57-day double-blind randomized treatment period with site visits at Days 1, 15, 29, and 57; and a 4-week follow-up period consisting of a clinic visit after 2 weeks and a phone call after 4 weeks. The study was carried out in accordance with the Declaration of Helsinki and approved by the relevant Institutional Review Boards. All participants provided written informed consent prior to the initiation of any study procedures.
Male and female patients aged 18 to 80 years were included in the trial if they met the American College of Rheumatology (ACR) 1990 and 2010 fibromyalgia diagnostic criteria at screening (Wolfe et al., 1990; Wolfe et al., 2010b). The core diagnostic criteria for fibromyalgia are defined by the 1990 criteria (Wolfe et al., 1990), and while ACR has published newer criteria, the 1990 version is still commonly utilized in clinical trials. To meet ACR 1990 criteria, patients must have had widespread pain for at least 3 months, defined as the presence of pain on the right and left sides of the body, pain above and below the waist, and pain in the axial skeleton (cervical spine, anterior chest, thoracic spine, or low back) (Wolfe et al., 1990). They must also have had pain in at least 11 of 18 tender point sites on digital palpation performed with an approximate force of 4 kg. To meet the ACR 2010 criteria, patients needed to have a widespread pain index (WPI) score of ≥7 and a symptom severity (SS) scale score ≥5, or a WPI score 3-6 and an SS scale score ≥9 (Wolfe et al., 2010b). Symptoms must have been present at a similar level for at least 3 months and patients must have been free of any other disorder that could have explained the pain.
Eligible patients were randomized 1:1 using Interactive Response Technology to receive oral Compound of Formula (I) 15 mg (three capsules of 5 mg) or matching placebo capsules, each given once daily in the morning, with or without food, for 8 weeks.
Secondary efficacy endpoints included the number of patients achieving a ≥30% or ≥50% reduction in mean daily average pain score assessed by NRS (0 to 10 scale) from baseline to Week 8 and end of treatment (EOT; Day 57); change from baseline to Weeks 2, 4, 8, and EOT in the FIQR function, symptoms, and overall impact subscales; and overall improvement assessed by patient global impression of change (PGIC) (Rampakakis et al., 2015) at Weeks 2, 4, 8, and EOT.
Questionnaires on efficacy, such as FIQR and PGIC, were completed during study visits. The FIQR captures the full spectrum of problems related to fibromyalgia and the responses to therapy, ranging from activities of daily living, overall impact, and symptoms (Bennett et al., 2009). Patients answered each question on an 11-point NRS over a recall period of the last 7 days or the last time the activity was performed (for the physical function domain if the activity was not performed within the 7-day recall period). The PGIC is a self-administered 7-point Likert scale that asks patients to evaluate their fibromyalgia relative to baseline (from “very much improved” to “very much worse”) (Rampakakis et al., 2015).
In FIG. 2, the change from baseline in FIQR total score is depicted. The FIQR total score represents the sum of the three sub scale scores: symptom, function, and overall impact. The symptom sub scale accounts for 50%, the function subscale accounts for 30%, and the overall impact subscale accounts for 20% of the total score. Data from double-blind period are presented as LS mean±standard error; data from follow-up period are presented as mean±standard error. […]

Cc1sc2cc(Cl)ccc2c1-c1ccc(N2CCO[C@H](CNC3CCC3)C2)c(C(=O)O)c1 [Compound of Formula (I)]
FIQR total score improvement from baseline, LS mean difference versus placebo (EOT, LOCF imputation, P=0.050): −3.75 | FIQR overall impact subscale, LS mean difference versus placebo (Week 4, P=0.018): −1.34 | FIQR total score reduction from baseline, LS mean difference versus placebo (Week 4, P=0.033): −4.14 | FIQR symptoms subscale, LS mean difference versus placebo (Week 4, P=0.039): −3.73 | FIQR function subscale, LS mean difference versus placebo (Week 4, P=0.103): −2.97 | reduction from baseline in FIQR function, symptoms subscale, or overall impact subscale versus placebo (baseline to Week 8): no statistically significant differences | FIQR total score improvement from baseline, LS mean difference versus placebo (baseline to Week 8, mBOCF imputation, P=0.036): −4.10 | FIQR total score reduction from baseline, LS mean difference versus placebo (baseline to Week 8, MMRM analysis, P=0.093): −3.27
